Data set [1] deals with recombinant human BACE1 protein (amino acids 1–457, extracellular domain) (Homo sapiens, UniProt P56817). Put plainly: Fluorescence correlation spectroscopy (FCS) with BACE1 ECD in solution.
In the next data set the target is T1, endogenous BACE1 (Mus musculus, UniProt P56818).
T1 construct: from tissue; host or cells: mouse brain cryosections (hippocampus, cerebellum), C57BL/6J background, P16
The data set is described as follows: Staining of endogenous BACE1 in brain slices. To be noted: 250 nM probe, BACE1+/+ vs BACE1–/– mice. From the text: Areas with high expression such as the hippocampal MFB[38] or cerebellar Purkinje cells[39],[40] are readily distinguished. However, all primary anti-BACE1 antibodies tested in our lab produced a significant background in samples of BACE1 knockout mice.[20],[23] […] We wondered if our new Alexa-C3 compounds could outperform existing probes in endogenous tissue. […] Close to the hilus, we depicted the MFB additionally at higher magnification (Figure 4B). […] From this set of data and from previous experiments using anti-BACE1 antibodies and SiR-BACE1 we calculated the ratio of the signal in the hilar region to the signal in the molecular layer (Figure 4C), since the molecular layer (red box in Figure 4C) is more affected by background fluorescence due to the relatively low BACE1 expression level.
(A) Images of the hippocampus depict the mossy fiber bundle (MFB) with high BACE1 expression with the intervening CA3 pyramidal cell layer (CA3) and proximal dentate gyrus (DG). […] The scale bar represents 200 μm. […]
For quantification of hippocampal BACE1 staining, mean intensities of the mossy fiber bundle were divided by the mean intensity of the molecular layer of the dentate gyrus. Mean intensities were calculated from rectangular regions of interest. In addition, analysis was performed on images of hippocampal BACE1 labeling with SiR-BACE1 recorded previously.[31]

Data set [2] is described as follows: Fluorescence spectroscopy, sensitivity to BSA and Expi293F cells. To be noted: mock Expi293F cells in fluorobrite vs PBS alone.
Procedure: Emission and excitation spectra of all compounds were determined at a concentration of 33 nM in phosphate buffered saline (PBS) using an infinite 200pro (Tecan) with a resolution of 2 nm. […] For sensitivity assessment, we used PBS, PBS + BSA (0.05%), and Expi293F cells in fluorobrite (2 × 10^6 cells/mL).
Data set [3] concerns the target T2, hBACE1 fused to EGFP or mCherry in HEK293T cells (Homo sapiens, UniProt P56817).
T2 construct: expressed in transfected cells; host or cells: HEK293T
Put plainly: Staining of transfected HEK293T cells, confocal imaging: BACE1. In kind it is cell-based. To be noted: for staining of BACE1 after preincubation with unconjugated C3: living HEK293T, preincubation with 2 μM C3. The protocol: Next, we explored the performance of the new Alexa-C3 compounds in living cells. Because of the rather hydrophilic properties, we exclusively targeted the cell membrane. To prevent intracellular accumulation, we first performed stainings at 4 °C arresting ATP-dependent endocytosis. […] All of the constructs were tagged at the C-terminus with either EGFP or mCherry to visualize subcellular expression. […] With these experiments, we want to exclude that a lack of staining is caused by an impaired accessibility of the protein by Alexa-C3 compounds. […] We then tested samples with BACE1 expression after fixation of the cells with paraformaldehyde (PFA).
(D) All conjugates were also probed on cells fixed with 4% paraformaldehyde (PFA) for 15 min prior to staining. […] Scale bars represent 5 μm (A–D) and 20 μm (E). […] Samples were excited at 488, 561, and 633 nm, respectively.
HEK293T cells (ATCC accession number CRL-11268) were maintained in Dulbecco's modified Eagle's medium (Sigma-Aldrich D6046) with 1g/L glucose, supplemented with 10% FCS (Merck) and 1% penicillin/streptomycin (PAA). CHO-K1 cells (ATCC #CCL-61) were maintained in modified phenol red free RPMI-1640 medium (Sigma-Aldrich, R7509), supplemented with 2 mM L-glutamine (Sigma-Aldrich, G7513), and 10% FCS (Merck). Cells were cultured at 37 °C in a 5% CO2 atmosphere. The following plasmids were used for transfection with the amount of DNA indicated (per 35 mm Petri dish): hBACE1 (NM_012104.4), 50 ng for single molecule recordings, 200 ng otherwise; hBACE1 fused to EGFP or mCherry, 75 ng; hBACE1 D289N fused to EGFP or mCherry, 75 ng; hBACE1 D289N, 200–400 ng; hBACE2 (NM_012105.3) fused to EGFP, 75 ng; hCathepsinD (HsCD00438327), Harvard PlasmID, 75 ng. Transfection was performed 24 h after plating using jetPEI (Polyplus) according to the manufacturer’s protocol.
For labeling, we plated HEK293T cells onto sterile 18 mm 1.5H borosilicate coverslips (VWR), coated with poly-D-lysine (Sigma). […] In addition, some cells were also fixed with 4% PFA or permeabilized with HBS + 50 μg/mL of Saponin for 15 min prior to staining as stated in the figure legend. After staining, live cells were washed with HBS twice. Confocal imaging was conducted at room temperature in HBS using the 63× objective and the pinhole set to 1 AU. Confocal imaging was performed 24 h after transfection.

recombinant human BACE1 protein (amino acids 1–457, extracellular domain), sequence (P56817 22-457): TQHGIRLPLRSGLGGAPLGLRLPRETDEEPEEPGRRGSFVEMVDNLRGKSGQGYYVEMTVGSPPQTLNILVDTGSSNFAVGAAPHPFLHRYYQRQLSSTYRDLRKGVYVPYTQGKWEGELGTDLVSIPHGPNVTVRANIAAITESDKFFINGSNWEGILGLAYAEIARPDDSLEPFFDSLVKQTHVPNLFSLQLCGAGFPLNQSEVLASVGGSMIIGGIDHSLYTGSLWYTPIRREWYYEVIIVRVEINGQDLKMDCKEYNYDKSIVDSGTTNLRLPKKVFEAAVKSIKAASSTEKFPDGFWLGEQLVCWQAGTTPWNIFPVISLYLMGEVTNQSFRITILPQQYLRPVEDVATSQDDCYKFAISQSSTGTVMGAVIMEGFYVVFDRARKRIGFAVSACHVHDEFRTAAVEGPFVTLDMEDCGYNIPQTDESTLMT
T2 sequence (P56817 46-501): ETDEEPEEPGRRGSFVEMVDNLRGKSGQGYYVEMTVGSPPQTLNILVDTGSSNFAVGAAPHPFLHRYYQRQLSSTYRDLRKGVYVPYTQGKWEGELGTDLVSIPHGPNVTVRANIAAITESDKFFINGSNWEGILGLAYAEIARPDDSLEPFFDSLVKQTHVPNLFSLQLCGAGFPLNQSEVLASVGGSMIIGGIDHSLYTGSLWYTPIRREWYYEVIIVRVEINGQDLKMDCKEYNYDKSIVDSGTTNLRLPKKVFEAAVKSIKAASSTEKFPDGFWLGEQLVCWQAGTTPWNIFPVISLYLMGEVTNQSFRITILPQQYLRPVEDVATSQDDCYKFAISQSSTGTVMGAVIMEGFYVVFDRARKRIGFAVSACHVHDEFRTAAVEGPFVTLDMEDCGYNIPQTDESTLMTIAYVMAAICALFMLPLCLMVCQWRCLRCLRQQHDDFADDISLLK
T1 sequence (P56818 46-501): as the sequence (P56817 46-501) above, with P6S, V162I, L165I, S180T, V182A, I340V, L393A, Q443H counted along it

Turning to `C[C@@H](NC(=O)c1cc(C(=O)N[C@@H](Cc2ccccc2)[C@H](O)CNC2CC2)cc(N(C)S(=O)(=O)CCCNC(=O)CCCCCC2(C)C(/C=C/C=C/C=C3/N(CCCS(=O)(=O)O)c4ccc(S(=O)(=O)O)cc4C3(C)C)=[N+](CCCS(=O)(=O)[O-])c3ccc(S(=O)(=O)O)cc32)c1)c1ccccc1` (some centres unmarked), the “additional slow diffusing component with BACE1 ECD” value in data set [1] (100 nM probe with BACE1 ECD, pH 5) was “no additional slow component was observed”. Besides, the “labeling of endogenous BACE1 in brain slices” value at endogenous BACE1 is on record as “unsuccessful”. The “increase of fluorescent output in presence of Expi293F cells” value in data set [2] was “+8%”. Further, the “specificity in permeabilized cells” value in data set [3] (50 μg/mL saponin prior to staining, 100 nM probe) is listed as “the same specificity was observed”. In addition, the “staining of BACE1 after fixation with PFA” value in data set [3] (HEK293T fixed with 4% PFA for 15 min prior to staining) was “did not yield a considerable signal”. Besides, the “staining of BACE1 after preincubation with unconjugated C3” value in data set [3] is listed as “absence of any staining”.

`C[C@@H](NC(=O)c1cc(C(=O)N[C@@H](Cc2ccccc2)[C@H](O)CNC2CC2)cc(N(C)S(=O)(=O)CCCNC(=O)c2ccc(C(=O)O)c(-c3c4ccc(=N)c(S(=O)(=O)O)c-4oc4c(S(=O)(=O)O)c(N)ccc34)c2)c1)c1ccccc1` [2-(6-Amino-3-iminio-4,5-disulfo-3H-xanthen-9-yl)-4-((3-(N-(3-(((2S,3R)-4-(cyclopropylamino)-3-hydroxy-1-phenylbutan-2-yl)carbamoyl)-5-(((R)-1-phenylethyl)carbamoyl)phenyl)-N-methylsulfamoyl)propyl)carbamoyl)benzoate]: the concentration for a half-maximal effect (EC50) in data set [1] is 9.77 nM. In data set [1] (100 nM probe with BACE1 ECD, pH 5, mean ± SEM, n = 3 preparations), the “diffusion time constant of the second (BACE1-bound, slow) population” value is reported as 310 ± 10 μs. Further, the “labeling of endogenous BACE1 in brain slices” value on endogenous BACE1 is recorded as “labeled BACE1 in a typical pattern”. The “increase of fluorescent output in presence of Expi293F cells” value in data set [2] is listed as “+25%”. Besides, in data set [3], the “staining of BACE1 after preincubation with unconjugated C3” value is reported as “no appreciable fluorescence”.

Source of the values: paper PMC11215771 (Journal of Medicinal Chemistry, 2024).
